Entries after “also recorded” stand apart in the source; their conditions may differ.
Key:
[1] = oral therapy; cited from earlier work
[2] = Drug concentration in the skin after the 48 hour diffusion study
[3] = In vitro diffusion studies with human skin (flow-through diffusion cells); format: in vitro ADME; conditions: for in vitro NTX (equivalent) flux across human skin, NTX-NTX compared with NTX: FIG. 2, mean of nine cells NTX and twelve cells NTX-NTX, three donors, paired Student's t-test p<0.05
Method: In vitro diffusion studies were conducted using human skin harvested during abdominal reduction surgery. Skin sections were obtained by using a Padgett dermatome set to 250 microns, and then were frozen at −20° C. until the time of the experiment. A PermeGear flow-through (In-Line, Riegelsville, Pa.) diffusion cell system was used for the diffusion studies. Data was collected utilizing three different specimens of frozen human tissue from three different donors. The human tissues had been frozen from two to five months. Three diffusion cells were used for NTX and four cells were used for NTX-NTX. A receiver buffer of HEPES-buffered Hank's balanced salts solution with gentamicin at pH of 7.3-7.4 was collected at a flow rate of 1.1 mL/h. A saturated NTX or NTX-NTX solution in light mineral oil was applied to the skin cells. Each cell received 0.25 mL of the respective drug solution. Samples were collected in six hour increments for 48 hours. After a six hour sample was obtained, they were stored at 4° C. until solid phase extraction processing. Skin cells were kept at 32° C. with a circulating water bath set to 39° C.
The diffusion data were plotted as the cumulative quantity of NTX equivalents collected in the receiver cell as a function of time. The flux value for a given experiment was computed from Fick's First Law of diffusion:
where Js is the steady-state flux, M is the cumulative amount of intact drug permeating the skin, A is the area of the cell (0.95 cm^2), Kp is the effective permeability coefficient in cm/h, and ΔC is the difference in concentration of NTX or NTX-NTX in the donor and receiver. Buildup in the receiver cell was kept to a minimum throughout the studies.
[…] in the skin and appeared as NTX in the receiver collection. The total amounts of NTX that absorbed through the skin and into the receiver from NTX and NTX-NTX were used in the data analysis. […] Data represent the mean±standard deviation of the nine skin cells with NTX and the twelve skin cells with NTX-NTX. Three individual human donor skin tissues were used. Due to the high variability of human skin, NTX was used with each experiment as a control. The results are reported in NTX nmol equivalents because the NTX-NTX duplex contains two molecules of NTX. Approximately 4% of the NTX flux was from the intact NTX-NTX prodrug, and 96% was NTX originating from the hydrolysis of NTX-NTX.
The data represents the mean±standard deviation of the nine cells with NTX and the twelve cells of NTX-NTX. Three individual human donor skin tissues were used.

[4] = saturated solution in light mineral oil, human skin, 32° C., 48 hours, receiver collection

Compound	hepatotoxicity [1]	total NTX equivalent skin concentration, NTX-NTX-treated skin versus NTX-treated skin ([2]; after 48 hour diffusion study, FIG. 3)	share of the drug extracted from the NTX-NTX-treated skin that was NTX (bioconversion) ([2]; end of the 48 hour study, human skin)	in vitro NTX (equivalent) flux across human skin, NTX-NTX compared with NTX [3]	in vitro NTX (equivalent) flux across human skin, NTX-NTX compared with NTX ([3]; listed as duplex prodrug of NTX)	share of the NTX flux that was NTX originating from the hydrolysis of NTX-NTX [3, 4]	share of the NTX flux that was intact NTX-NTX prodrug [3, 4]
O=C1CC[C@@]2(O)[C@H]3Cc4ccc(O)c5c4[C@@]2(CCN3CC2CC2)[C@H]1O5 [NTX, Naltrexone]	dose-related hepatocellular injury						
O=C(Oc1ccc2c3c1OC1C(=O)CC[C@@]4(O)[C@@H](C2)N(CC2CC2)CC[C@]314)Oc1ccc2c3c1OC1C(=O)CC[C@@]4(O)[C@@H](C2)N(CC2CC2)CC[C@]314 (stereo partly shown) [NTX-NTX, 3,3′-Di-(N-cyclopropylmethyl-4,5-epoxy-14-hydroxy-morphinan-6-one-3-yl) Carbonate]		No significant difference	66%	significant difference between the means; also recorded: significant increase in NTX equivalent flux	unexpected increase of NTX maximum flux rate	96%	Approximately 4%
